e = 2'-O-(2-methoxyethyl) (MOE); d = 2'-deoxy (DNA)
System: human growth hormone receptor mRNA
Experiment: Inhibition of human growth hormone receptor mRNA levels by antisense oligonucleotides, quantitative real-time PCR, MCF7 cells
Assay type: cell-based
Parameters: concentration or dose not given beside the values
Conditions: averages from three experiments
Method: “Target site” indicates the first (5′-most) nucleotide number on the particular target sequence to which the oligonucleotide binds. “% Inhib” indicates the inhibitory effect on hGHR mRNA levels by quantitative real-time PCR. Data are averages from three experiments in which MCF7 cells were treated with the antisense oligonucleotides.
All oligonucelotides in Table 1 are chimeric oligonucleotides (“gapmers”), 20 nucleotides in length, composed of a central “gap” region consisting of ten 2′-deoxynucleotides, which is flanked on both sides (5′ and 3′ directions) by five-nucleotide “wings”. The wings are composed of 2′-methoxyethyl (2′-MOE) nucleotides. The internucleoside (backbone) linkages are phosphorothioate (P═S) throughout the oligonucleotide. All uracils are 5-methyluracils (^MeU). Typically, the oligonucleotide is synthesized using 2-methoxyethyl modified thymidines not 5-methyluracils. All pyrimidines are C5 methylated (i.e., U, T, C are C5 methylated).

| Substance | % INHIB (inhibitory effect on hGHR mRNA levels) |
| --- | --- |
| 272321 (antisense AACCCAAGAGTCATCACTGT; sugars from the 5' end e5 d10 e5, all phosphorothioate, methylation of C not given here) [compound 272321] | 64% |
| 272322 (antisense CTGGCTCATCAATATCTAGC; sugars from the 5' end e5 d10 e5, all phosphorothioate, methylation of C not given here) [compound 272322] | 84% |
| 272323 (antisense TGTGTCTGATTCCTCAGTCT; sugars from the 5' end e5 d10 e5, all phosphorothioate, methylation of C not given here) [compound 272323] | 67% |
| 272324 (antisense TATGTCATTGGCATTGAAAT; sugars from the 5' end e5 d10 e5, all phosphorothioate, methylation of C not given here) [compound 272324] | 53% |
| 272325 (antisense AAGGCATAAGAGATCTGCTT; sugars from the 5' end e5 d10 e5, all phosphorothioate, methylation of C not given here) [compound 272325] | 66% |
| 272326 (antisense ACTCAGCTCCTTCAGTAGGA; sugars from the 5' end e5 d10 e5, all phosphorothioate, methylation of C not given here) [compound 272326] | 77% |
| 272327 (antisense GGACATCCCTGCCTTATTCT; sugars from the 5' end e5 d10 e5, all phosphorothioate, methylation of C not given here) [compound 272327] | 60% |
| 272328 (antisense GGCATTGTCCATAAGGAAGT; sugars from the 5' end e5 d10 e5, all phosphorothioate, methylation of C not given here) [compound 272328] | 85% |
| 272329 (antisense ACTTTTTGGCATCTGCCTCA; sugars from the 5' end e5 d10 e5, all phosphorothioate, methylation of C not given here) [compound 272329] | 63% |
| 272330 (antisense GATGCACTTTTTGGCATCTG; sugars from the 5' end e5 d10 e5, all phosphorothioate, methylation of C not given here) [compound 272330] | 47% |
| 272331 (antisense CAGTCGCATTGAGTATGAGG; sugars from the 5' end e5 d10 e5, all phosphorothioate, methylation of C not given here) [compound 272331] | 67% |
| 272332 (antisense CTCTTTGTCAGGCAAGGGCA; sugars from the 5' end e5 d10 e5, all phosphorothioate, methylation of C not given here) [compound 272332] | 75% |
| 272333 (antisense GTGCTCACATAGCCACATGA; sugars from the 5' end e5 d10 e5, all phosphorothioate, methylation of C not given here) [compound 272333] | 72% |
| 272334 (antisense AAGAAAGGCTAAGGCATGAT; sugars from the 5' end e5 d10 e5, all phosphorothioate, methylation of C not given here) [compound 272334] | 61% |
| 272335 (antisense AAATACGTAGCTCTTGGGAA; sugars from the 5' end e5 d10 e5, all phosphorothioate, methylation of C not given here) [compound 272335] | 47% |
| 272336 (antisense CAATCACTGCTACTAAACAG; sugars from the 5' end e5 d10 e5, all phosphorothioate, methylation of C not given here) [compound 272336] | 69% |
| 272337 (antisense AAACATAGCCATTCAATGCT; sugars from the 5' end e5 d10 e5, all phosphorothioate, methylation of C not given here) [compound 272337] | 39% |
| 272338 (antisense GTGCTATGGTTTGCATTCAA; sugars from the 5' end e5 d10 e5, all phosphorothioate, methylation of C not given here) [compound 272338] | 78% |

| Substance | % INHIB (inhibitory effect on hGHR mRNA levels) |
| --- | --- |
| 272339 (antisense GTTTTACATATCCAAACTAT; sugars from the 5' end e5 d10 e5, all phosphorothioate, methylation of C not given here) [compound 272339] | 72% |
| 272340 (antisense CATCAACCAAGATTTGGTGA; sugars from the 5' end e5 d10 e5, all phosphorothioate, methylation of C not given here) [compound 272340] | 69% |
| 272341 (antisense GAGGCTATAGATCTTATCTC; sugars from the 5' end e5 d10 e5, all phosphorothioate, methylation of C not given here) [compound 272341] | 65% |
| 272342 (antisense TAGTGAGAAAGAAAGTTTCT; sugars from the 5' end e5 d10 e5, all phosphorothioate, methylation of C not given here) [compound 272342] | 45% |
| 272343 (antisense AATGCTCTCAAGAATGATGT; sugars from the 5' end e5 d10 e5, all phosphorothioate, methylation of C not given here) [compound 272343] | 48% |
| 272344 (antisense ACACTCAATTCTAGCTTTTC; sugars from the 5' end e5 d10 e5, all phosphorothioate, methylation of C not given here) [compound 272344] | 60% |
| 272345 (antisense CATCTATTACAAATAACATG; sugars from the 5' end e5 d10 e5, all phosphorothioate, methylation of C not given here) [compound 272345] | 24% |
| 272346 (antisense CTCTTGGAGAAAACCATAGC; sugars from the 5' end e5 d10 e5, all phosphorothioate, methylation of C not given here) [compound 272346] | 67% |
| 272347 (antisense TCTACACTGATGATACTTTA; sugars from the 5' end e5 d10 e5, all phosphorothioate, methylation of C not given here) [compound 272347] | 62% |
| 272348 (antisense CACAGCTTTGAATTGAATTA; sugars from the 5' end e5 d10 e5, all phosphorothioate, methylation of C not given here) [compound 272348] | 57% |
| 272349 (antisense AGTCTTCCAAACACACAGCT; sugars from the 5' end e5 d10 e5, all phosphorothioate, methylation of C not given here) [compound 272349] | 68% |
| 272350 (antisense AGGCTGTTGTGAAATAGTAA; sugars from the 5' end e5 d10 e5, all phosphorothioate, methylation of C not given here) [compound 272350] | 67% |
| 272351 (antisense ATAGAAATGTTGTCAGGCTG; sugars from the 5' end e5 d10 e5, all phosphorothioate, methylation of C not given here) [compound 272351] | 57% |
| 272352 (antisense CCAAAATGACATTCTGAGAC; sugars from the 5' end e5 d10 e5, all phosphorothioate, methylation of C not given here) [compound 272352] | 77% |
| 272353 (antisense ATAATGGCTTATGTGGCCAC; sugars from the 5' end e5 d10 e5, all phosphorothioate, methylation of C not given here) [compound 272353] | 72% |
| 272354 (antisense AGTTATGTGACCCTGATTGA; sugars from the 5' end e5 d10 e5, all phosphorothioate, methylation of C not given here) [compound 272354] | 65% |
| 272355 (antisense TTGAGTGTTCCTAAAATGAA; sugars from the 5' end e5 d10 e5, all phosphorothioate, methylation of C not given here) [compound 272355] | 24% |
| 272356 (antisense ATGGAGGCTGGAGGTTCAAA; sugars from the 5' end e5 d10 e5, all phosphorothioate, methylation of C not given here) [compound 272356] | 63% |

Reference: patent US20160129089A1, “COMBINATION THERAPY” (ANTISENSE THERAPEUTICS LTD, priority 2013, published 2016)
